According to patent US20260207623A1, “USE OF ESTETROL IN HEPATICALLY IMPAIRED PATIENTS” (ESTETRA SRL, priority 2022, published 2026):

Columns and labels:
healthy women = experiment: Example 2 section G: adverse events after single and 14-day multiple oral doses of Estetrol monohydrate/Drospirenone 15 mg/3 mg and 30 mg/6 mg; assay type: in vivo, human; settings: single dose then once daily for 14 days
Description: The following treatments were administered to healthy women (between 15-50 years inclusive) according to the randomization code. • Placebo (n=16); • Group 15 mg: a single oral dose of 15 mg Estetrol monohydrate/3 mg Drospirenone (n=10) followed, after a washout of 14 days, by multiple oral doses of 15 mg Estetrol monohydrate/3 mg Drospirenone (n=10) once daily for 14 days; • Group 30 mg: a single oral dose of 30 mg Estetrol monohydrate/6 mg Drospirenone (n=10), followed, after a washout of 14 days, by multiple oral doses of 30 mg Estetrol monohydrate/6 mg Drospirenone (n=10) once daily for 14 days.
Adverse events were recorded from first admission until completion of the follow-up visit (between 37 to 42 days after first day of treatment).

post-menopausal women = experiment: Example 3: severity of moderate to severe VMS; assay type: in vivo, human; settings: 15 mg and 20 mg vs placebo; weeks 4 and 12 (FIG. 12)
Description: A further clinical study was designed to evaluate the effect of 15 or 20 mg estetrol (E4) monohydrate, or placebo on the severity and frequency of vasomotor symptoms (VMS) and the safety of E4 20 mg. The inclusion and exclusion criteria as described for Example 2 were maintained for the present Example (i.e. Example 3).
• 1. Mean change in weekly frequency of moderate to severe vasomotor symptoms (VMS) from Baseline to Week 4 (Efficacy Study Part) [Time Frame: Baseline and Week 4]: • The weekly frequency of moderate to severe VMS at Baseline and Week 4 is defined as the total number (sum) of all recorded moderate to severe VMS experienced during the last 7 consecutive days prior randomization for Baseline and at Week 4. Mean change=mean weekly frequency at Week 4-mean weekly frequency at Baseline. • 2. Mean change in weekly frequency of moderate to severe vasomotor symptoms (VMS) from Baseline to Week 12 (Efficacy Study Part) [Time Frame: Baseline and Week 12] • The weekly frequency of moderate to severe VMS at Baseline and Week 12 is defined as the total number (sum) of all recorded moderate to severe VMS experienced during the last 7 consecutive days prior randomization for Baseline and at Week 12. Mean change=mean weekly frequency at Week 12-mean weekly frequency at Baseline. • 3. […]

[1] = 15 mg Estetrol monohydrate/3 mg Drospirenone
[2] = 30 mg Estetrol monohydrate/6 mg Drospirenone

## C[C@]12CC[C@@H]3c4ccc(O)cc4CC[C@H]3[C@@H]1[C@@H](O)[C@@H](O)[C@@H]2O [E4 monohydrate, estetrol monohydrate]
Healthy women; [1]
  TEAEs by relationship to study drug, Related, subjects reporting one or more AE: 50%
  TEAEs by relationship to study drug, Total, subjects reporting one or more AE: 80%
  TEAEs by relationship to study drug, Unrelated, subjects reporting one or more AE: 50%
Healthy women; [2]
  TEAEs by relationship to study drug, Related, subjects reporting one or more AE: 50%
  TEAEs by relationship to study drug, Total, subjects reporting one or more AE: 70%
  TEAEs by relationship to study drug, Unrelated, subjects reporting one or more AE: 50%
post-menopausal women
  severity of moderate to severe VMS: significantly decreased
